Reference: paper PMC6979384, “Characterization of the plant homeodomain (PHD) reader family for their histone tail interactions” (Epigenetics & Chromatin, 2020)

Experiments:
[1] = dCypher AlphaScreen Phase A, optimal reader concentration range; type: binding; settings: 100 nM biotinylated peptide; 30 min + 60 min at 23 °C; AlphaLISA; n = 2
Protocol: Fig. 3 dCypher histone peptide-binding assays define the PTM recognition preference of PHD proteins with high sensitivity. a–h Binding curves to determine optimal reader protein concentration for full peptide library screening on the dCypher® AlphaScreen® platform (see “Methods”). X-axes are log(protein concentration (M)) at constant peptide concentration (100 nM); Y-axes are AlphaScreen counts, representing relative strength of binding (n = 2; error bars are S.D.). i Heat map represents relative binding to H3 N-terminal peptides (left) by PHD-containing GST-tagged proteins (top) using the dCypher AlphaScreen platform. Protein concentrations can be found in Additional file 5: Table S4. Binding strength is indicated by color gradient from green to yellow (stronger to weaker). The asterisk (*) by MLL5 signifies its general preference for H3K4 methylation. Alpha counts (n = 2) were normalized individually for each protein to the highest signal for each respective assay. For full dCypher peptide screen data, see Additional file 4: Table S3
We next employed a highly sensitive proximity-based AlphaScreen histone peptide assay (dCypher®) to provide a third and orthogonal approach to analyzing the histone binding preferences for a subset of the 31 PHD proteins with respect to various histone tail PTMs. In this assay, biotinylated peptides are bound to streptavidin “donor” beads and the GST-tagged reader domains bound to Glutathione “acceptor” beads. […] Initial binding assays were conducted for each fusion protein using three peptides [H3 (1–20) with K4me0, H3K4me3 or H3K9me3] to determine the optimal reader domain concentration for full peptide library studies (Fig. 3a–h; Additional file 4: Table S3 and Additional file 5: Table S4). […]
The dCypher peptide screen assay was performed as previously described. […] Plates were incubated at 23 °C in subdued lighting for 60 min and AlphaLISA signal measured on a PerkinElmer 2104 EnVision (680 nm laser excitation, 570 nm emission filter ± 50 nm bandwidth). […]

AIRE (PP) = assay: Histone peptide microarray; type: binding, human; settings: sheet "Array Heatmap"; GST-tagged reader; histone peptide array, total n = 4
Method in brief: (§1)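 Readout is array binding signal, reported as the mean and standard deviation over four replicates. Each purified GST-fused PHD domain was incubated at 0.5 μM with a library of 293 modified histone peptides.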

BAZ2B = assay: Histone peptide microarray; type: binding, human; settings: sheet "Array Heatmap"; GST-tagged reader; histone peptide array, total n = 4
Method in brief: as §1

BPTF (PB) = assay: Histone peptide microarray; type: binding, human; settings: sheet "Array Heatmap"; GST-tagged reader; histone peptide array, total n = 4
Method in brief: as §1

CHD4 (PPCC) = assay: Histone peptide microarray; type: binding, human; settings: sheet "Array Heatmap"; GST-tagged reader; histone peptide array, total n = 4
Method in brief: as §1

CHD5 (PCC) = assay: Histone peptide microarray; type: binding, human; settings: sheet "Array Heatmap"; GST-tagged reader; histone peptide array, total n = 4
Method in brief: as §1

CHD5 (PPCC) = assay: Histone peptide microarray; type: binding, human; settings: sheet "Array Heatmap"; GST-tagged reader; histone peptide array, total n = 4
Method in brief: as §1

DIDO1 = assay: Histone peptide microarray; type: binding, human; settings: sheet "Array Heatmap"; GST-tagged reader; histone peptide array, total n = 4
Method in brief: as §1

DPF2 (PPC2W2) = assay: Histone peptide microarray; type: binding, human; settings: sheet "Array Heatmap"; GST-tagged reader; histone peptide array, total n = 4
Method in brief: as §1

ING1 = assay: Histone peptide microarray; type: binding, human; settings: sheet "Array Heatmap"; GST-tagged reader; histone peptide array, total n = 4
Method in brief: as §1

ING2 = assay: Histone peptide microarray; type: binding, human; settings: sheet "Array Heatmap"; GST-tagged reader; histone peptide array, total n = 4
Method in brief: as §1

ING3 = assay: Histone peptide microarray; type: binding, human; settings: sheet "Array Heatmap"; GST-tagged reader; histone peptide array, total n = 4
Method in brief: as §1

ING4 = assay: Histone peptide microarray; type: binding, human; settings: sheet "Array Heatmap"; GST-tagged reader; histone peptide array, total n = 4
Method in brief: as §1

ING5 = assay: Histone peptide microarray; type: binding, human; settings: sheet "Array Heatmap"; GST-tagged reader; histone peptide array, total n = 4
Method in brief: as §1

KDM4C (TTP) = assay: Histone peptide microarray; type: binding, human; settings: sheet "Array Heatmap"; GST-tagged reader; histone peptide array, total n = 4
Method in brief: as §1

KDM5A (1) = assay: Histone peptide microarray; type: binding, human; settings: sheet "Array Heatmap"; GST-tagged reader; histone peptide array, total n = 4
Method in brief: as §1

KDM5A (3) = assay: Histone peptide microarray; type: binding, human; settings: sheet "Array Heatmap"; GST-tagged reader; histone peptide array, total n = 4
Method in brief: as §1

KDM5B (1) = assay: Histone peptide microarray; type: binding, human; settings: sheet "Array Heatmap"; GST-tagged reader; histone peptide array, total n = 4
Method in brief: as §1

KDM5B (3) = assay: Histone peptide microarray; type: binding, human; settings: sheet "Array Heatmap"; GST-tagged reader; histone peptide array, total n = 4
Method in brief: as §1

KDM7A = assay: Histone peptide microarray; type: binding, human; settings: sheet "Array Heatmap"; GST-tagged reader; histone peptide array, total n = 4
Method in brief: as §1

MLL5 = assay: Histone peptide microarray; type: binding, human; settings: sheet "Array Heatmap"; GST-tagged reader; histone peptide array, total n = 4
Method in brief: as §1

MORC3 (CW) = assay: Histone peptide microarray; type: binding, human; settings: sheet "Array Heatmap"; GST-tagged reader; histone peptide array, total n = 4
Method in brief: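 Binding read as mean relative signal from 4 replicates; microarray held 293 synthetic histone peptides with single or combinatorial PTMs. Each GST-tagged PHD reader was applied at 0.5 μM using the optimized Petell protocol.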

PHF13 = assay: Histone peptide microarray; type: binding, human; settings: sheet "Array Heatmap"; GST-tagged reader; histone peptide array, total n = 4
Method in brief: as §1

PHF21A = assay: Histone peptide microarray; type: binding, human; settings: sheet "Array Heatmap"; GST-tagged reader; histone peptide array, total n = 4
Method in brief: as §1

PHF23 = assay: Histone peptide microarray; type: binding, human; settings: sheet "Array Heatmap"; GST-tagged reader; histone peptide array, total n = 4
Method in brief: as §1

PHF2 = assay: Histone peptide microarray; type: binding, human; settings: sheet "Array Heatmap"; GST-tagged reader; histone peptide array, total n = 4
Method in brief: as §1

PHF8 = assay: Histone peptide microarray; type: binding, human; settings: sheet "Array Heatmap"; GST-tagged reader; histone peptide array, total n = 4
Method in brief: as §1

PHRF1 (RP) = assay: Histone peptide microarray; type: binding, human; settings: sheet "Array Heatmap"; GST-tagged reader; histone peptide array, total n = 4
Method in brief: as §1

RAG2 = assay: Histone peptide microarray; type: binding, human; settings: sheet "Array Heatmap"; GST-tagged reader; histone peptide array, total n = 4
Method in brief: as §1

SP140L = assay: Histone peptide microarray; type: binding, human; settings: sheet "Array Heatmap"; GST-tagged reader; histone peptide array, total n = 4
Method in brief: as §1

TAF3 = assay: Histone peptide microarray; type: binding, human; settings: sheet "Array Heatmap"; GST-tagged reader; histone peptide array, total n = 4
Method in brief: as §1

TRIM66 (PB) = assay: Histone peptide microarray; type: binding, human; settings: sheet "Array Heatmap"; GST-tagged reader; histone peptide array, total n = 4
Method in brief: as §1

H3K4me0 readers = assay: dCypher AlphaScreen Phase B (full peptide screen), H3K4me0 readers together; type: binding, human; settings: 100 nM peptide, 23 °C, n = 2
Protocol: Fig. 3 dCypher histone peptide-binding assays define the PTM recognition preference of PHD proteins with high sensitivity. a–h Binding curves to determine optimal reader protein concentration for full peptide library screening on the dCypher® AlphaScreen® platform (see “Methods”). X-axes are log(protein concentration (M)) at constant peptide concentration (100 nM); Y-axes are AlphaScreen counts, representing relative strength of binding (n = 2; error bars are S.D.). i Heat map represents relative binding to H3 N-terminal peptides (left) by PHD-containing GST-tagged proteins (top) using the dCypher AlphaScreen platform. Protein concentrations can be found in Additional file 5: Table S4. […]
Once the optimal protein concentration ranges for each of the eight readers were determined, we conducted the full dCypher peptide screen (293 histone peptides) (Fig. 3i; Additional file 4: Table S3).
The dCypher peptide screen assay was performed as previously described. Briefly, 5 μL of GST-tagged reader domains (optimal protein concentration for library screening determined by initial binding curves to candidate peptides) were incubated with 5 μL of 400 nM (100 nM Final) biotinylated histone peptides (EpiCypher) for 30 min at 23 °C in 1× AlphaLISA Epigenetics buffer + epigenetics buffer supplement (PerkinElmer, AL1008) in a 384-well plate. […]

DIDO1: GST-tagged PHD, 250-340
Phase A Optimal Range (reader concentration) [1]: 0.015 to 0.5 nM

H3K9me3 + S10p: H3 1-20
Array Heatmap signal, AIRE (PP) (AIRE (PP)): 0.5449
Array Heatmap signal, BAZ2B (BAZ2B): 0.4277
Array Heatmap signal, BPTF (PB) (BPTF (PB)): 0.3029
Array Heatmap signal, CHD4 (PPCC) (CHD4 (PPCC)): 0.5281
Array Heatmap signal, CHD5 (PCC) (CHD5 (PCC)): 0.7991
Array Heatmap signal, CHD5 (PPCC) (CHD5 (PPCC)): 0.486
Array Heatmap signal, DIDO1 (DIDO1): 0.5964
Array Heatmap signal, DPF2 (PPC2W2) (DPF2 (PPC2W2)): 0.6544
Array Heatmap signal, ING1 (ING1): 0.4648
Array Heatmap signal, ING2 (ING2): 0.5763
Array Heatmap signal, ING3 (ING3): 0.3956
Array Heatmap signal, ING4 (ING4): 0.3907
Array Heatmap signal, ING5 (ING5): 0.3112
Array Heatmap signal, KDM4C (TTP) (KDM4C (TTP)): 0.4574
Array Heatmap signal, KDM5A (1) (KDM5A (1)): 0.4357
Array Heatmap signal, KDM5A (3) (KDM5A (3)): 0.3848
Array Heatmap signal, KDM5B (1) (KDM5B (1)): 0.7016
Array Heatmap signal, KDM5B (3) (KDM5B (3)): 0.4113
Array Heatmap signal, KDM7A (KDM7A): 0.3788
Array Heatmap signal, MLL5 (MLL5): 0.5167
Array Heatmap signal, MORC3 (CW) (MORC3 (CW)): 0.3534
Array Heatmap signal, PHF13 (PHF13): 0.5317
Array Heatmap signal, PHF21A (PHF21A): 0.4454
Array Heatmap signal, PHF23 (PHF23): 0.4606
Array Heatmap signal, PHF2 (PHF2): 0.4043
Array Heatmap signal, PHF8 (PHF8): 0.3127
Array Heatmap signal, PHRF1 (RP) (PHRF1 (RP)): 0.515
Array Heatmap signal, RAG2 (RAG2): 0.2135
Array Heatmap signal, SP140L (SP140L): 0.319
Array Heatmap signal, TAF3 (TAF3): 0.2418
Array Heatmap signal, TRIM66 (PB) (TRIM66 (PB)): 0.578
loss of binding on S10 phosphorylation (H3K4me0 readers): four out of five of the H3K4me0 readers lose binding capacity

KDM7A: GST-tagged PHD, 1-100
Phase A Optimal Range (reader concentration) [1]: 0.05 to 1 nM

MLL5: GST-tagged PHD, 100-180
Phase A Optimal Range (reader concentration) [1]: 0.015 to 0.05 nM
